Laboratory results published in paper PMC8085067, “The dimer-monomer equilibrium of SARS-CoV-2 main protease is affected by small molecule inhibitors” (Scientific Reports, 2021).
Entries after “also recorded” stand apart in the source; their conditions may differ.

Target: SARS-CoV-2 M^pro dimer-monomer equilibrium (Severe acute respiratory syndrome coronavirus 2, UniProt P0DTD1)
Assay: SAXS analysis of M^pro dimer-monomer equilibrium in presence of inhibitors
Conditions: for effect on M^pro dimer-monomer equilibrium (in words): SAXS; for αCp (rate of change of dissociation heat capacity with inhibitor concentration) / αS (rate of change of dissociation entropy with inhibitor concentration) / αG (rate of change of dissociation Gibbs free energy with inhibitor concentration): global SAXS fit, M^pro 30 μM; for αG (rate of change of dissociation Gibbs free energy with inhibitor concentration): inhibitor 30 and 60 μM, 30-45 °C

| SMILES | effect on M^pro dimer-monomer equilibrium (in words) | αCp (rate of change of dissociation heat capacity with inhibitor concentration) | αS (rate of change of dissociation entropy with inhibitor concentration) | αG (rate of change of dissociation Gibbs free energy with inhibitor concentration) |
| --- | --- | --- | --- | --- |
| Fc1c(F)c(N2CCOCCOCCOCCOCCOCC2)c(F)c(F)c1-c1nc(-c2ccccc2)no1 [Inhibitor 4, 16-(2,3,5,6-tetrafluoro-4-(3-phenyl-1,2,4-oxadiazol-5-yl)phenyl)-1,4,7,10,13-pentaoxa-16-azacyclooctadecane] | do not affect in a significant way the dimer-monomer equilibrium; also recorded: very weak stabilizing effect of the dimer | -2±2 10^-2 μM^-1 | -1±5 10^-2 μM^-1 | 0.0±0.1 10^-2 μM^-1 |
| OCCN(CCOc1c(F)c(F)c(-c2nc(-c3ccncc3)no2)c(F)c1F)CCOc1c(F)c(F)c(-c2nc(-c3ccncc3)no2)c(F)c1F [Inhibitor 3] | do not affect in a significant way the dimer-monomer equilibrium; also recorded: does not alter the native dissociation equilibrium | 0±4 10^-2 μM^-1 | -8±4 10^-2 μM^-1 | 0.00±0.08 10^-2 μM^-1 |
| CCNC(=O)c1noc(-c2c(F)c(F)c(NCCN(CCNc3c(F)c(F)c(-c4nc(C(=O)NCC)no4)c(F)c3F)CCNc3c(F)c(F)c(-c4nc(C(=O)NCC)no4)c(F)c3F)c(F)c2F)n1 [Inhibitor 7, 5,5’,5”-(((nitrilotris(ethane-2,1-diyl))tris(azanediyl))tris(2,3,5,6-tetrafluorobenzene-4,1-diyl))tris(N-ethyl-1,2,4-oxadiazole-3-carboxamide)] | mostly able to increase the dissociation equilibrium constant | -3±3 10^-2 μM^-1 | -5±2 10^-2 μM^-1 | -0.19±0.07 10^-2 μM^-1 |
